Reference: patent US20260085067A1, “CYCLIC SULFONAMIDE RIBONUCLEOTIDE REDUCTASE (RNR) INHIBITORS AND USES THEREOF” (Boundless Bio, Inc., priority 2022, published 2026)

How the values were obtained:
RNR (RNR1:RNR2 1:1) = molecular target: T1, RNR (RNR1:RNR2 1:1) (Homo sapiens, UniProt P23921); assay: RNR enzyme activity, rapid-fire mass spectrometry (RF/MS) assay; type: biochemical; settings: [RNR] 50 nM, 1:1 RNR1:RNR2; CDP 5 μM; ATP 1 mM; 37° C., 45 min; compounds screened up to 50 μM
T1 sequence (P23921 1-792): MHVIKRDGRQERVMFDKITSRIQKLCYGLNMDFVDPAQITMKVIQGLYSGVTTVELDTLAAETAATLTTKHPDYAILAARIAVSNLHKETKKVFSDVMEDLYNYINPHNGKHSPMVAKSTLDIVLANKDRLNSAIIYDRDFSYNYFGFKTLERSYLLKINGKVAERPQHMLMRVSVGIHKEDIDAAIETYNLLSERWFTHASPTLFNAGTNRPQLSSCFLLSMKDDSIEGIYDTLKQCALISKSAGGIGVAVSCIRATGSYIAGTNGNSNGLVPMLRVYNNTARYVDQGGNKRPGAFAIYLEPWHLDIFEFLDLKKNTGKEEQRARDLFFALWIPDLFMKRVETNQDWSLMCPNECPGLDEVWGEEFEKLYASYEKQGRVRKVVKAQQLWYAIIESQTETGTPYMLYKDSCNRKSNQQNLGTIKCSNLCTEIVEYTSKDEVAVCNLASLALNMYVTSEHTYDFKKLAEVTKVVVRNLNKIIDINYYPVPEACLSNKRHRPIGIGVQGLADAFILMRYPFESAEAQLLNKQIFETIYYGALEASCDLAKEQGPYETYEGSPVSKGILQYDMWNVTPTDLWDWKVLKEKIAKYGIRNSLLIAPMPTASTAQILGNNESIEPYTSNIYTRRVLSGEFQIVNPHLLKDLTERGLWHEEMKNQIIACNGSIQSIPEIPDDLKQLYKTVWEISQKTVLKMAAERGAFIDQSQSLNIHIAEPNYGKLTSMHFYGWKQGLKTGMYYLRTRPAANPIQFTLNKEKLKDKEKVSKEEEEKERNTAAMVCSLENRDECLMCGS
Summary of the method: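 Human RNR (50 nM final, RNR1:RNR2 1:1) pre-incubated 15 min at room temperature, then reacted 45 min at 37 °C with 5 μM CDP and 1 mM ATP, no NADPH. Reaction quenched with 6% HCOOH; product quantified by rapid-fire mass spectrometry.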

[1] = system: pCHK1 (S345) in Colo320 DM cells; assay: Alphalisa assay, detection of pCHK1 (S345) in Colo320 DM cells; type: cell-based, human; settings: Homo sapiens, COLO 320DM, compound overnight (approximately 16 hours)
Summary of the method: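 Phospho-CHK1 (S345) read by AlphaLisa SureFire in lysates of human colorectal Colo320 DM cells. Compound treatment ran overnight (~16 h, 37 °C, DMSO <0.5%) on cells seeded the day before.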

Row | Compound | IC50 (RNR (RNR1:RNR2 1:1)) [nM] | IC50 [1] [nM]
1 | Cc1ccc(F)c([C@@H](C)[C@@H](c2n[nH]c(=O)o2)N2CN(CCN3CCOCC3)c3cc(Cl)ccc3S2(=O)=O)c1C [Example 84, 5-((1S,2R)-1-(6-chloro-4-(2-morpholinoethyl)-1,1-dioxido-3,4-dihydro-2H-benzo[e][1,2,4]thiadiazin-2-yl)-2-(6-fluoro-2,3-dimethylphenyl)propyl)-1,3,4-oxadiazol-2 (3H)-one] | < 20 | ≤ 1000
2 | Cc1ccc(F)c([C@@H](C)[C@@H](c2n[nH]c(=O)o2)N2CN([C@H]3CCN(C)C3)c3cc(Cl)ccc3S2(=O)=O)c1C [Example 86, 5-((1S,2R)-1-(6-chloro-4-((S)-1-methylpyrrolidin-3-yl)-1,1-dioxido-3,4-dihydro-2H-benzo[e][1,2,4]thiadiazin-2-yl)-2-(6-fluoro-2,3-dimethylphenyl)propyl)-1,3,4-oxadiazol-2 (3H)-one] | < 20 | 1000 to 5000
3 | Cc1ccc(F)c([C@@H](C)[C@@H](c2n[nH]c(=O)o2)N2CN(C3CCOCC3)c3nc(Cl)ccc3S2(=O)=O)c1C [Example 87, 5-((1S,2R)-1-(6-chloro-1,1-dioxido-4-(tetrahydro-2H-pyran-4-yl)-3,4-dihydro-2H-pyrido[2,3-e][1,2,4]thiadiazin-2-yl)-2-(6-fluoro-2,3-dimethylphenyl)propyl)-1,3,4-oxadiazol-2 (3H)-one] | < 20 | ≤ 1000
4 | Cc1ccc(F)c([C@@H](C)[C@@H](c2n[nH]c(=O)o2)N2CN(CC(F)F)c3cc(Cl)ccc3S2(=O)=O)c1C [Example 88, 5-((1S,2R)-1-(6-chloro-4-(2,2-difluoroethyl)-1,1-dioxido-3,4-dihydro-2H-benzo[e][1,2,4]thiadiazin-2-yl)-2-(6-fluoro-2,3-dimethylphenyl)propyl)-1,3,4-oxadiazol-2 (3H)-one] | < 20 | ≤ 1000
5 | CC(=O)c1cc(Cl)cc2c1S(=O)(=O)N([C@H](c1n[nH]c(=O)o1)[C@H](C)c1c(F)ccc(C)c1C)CN2C1CC1 [Example 95, 5-((1S,2R)-1-(8-acetyl-6-chloro-4-cyclopropyl-1,1-dioxido-3,4-dihydro-2H-benzo[e][1,2,4]thiadiazin-2-yl)-2-(6-fluoro-2,3-dimethylphenyl)propyl)-1,3,4-oxadiazol-2 (3H)-one] | < 20 | ≤ 1000
6 | Cc1ccc(F)c([C@@H](C)[C@@H](c2n[nH]c(=O)o2)N2CN(C3CN(CC(F)(F)F)C3)c3cc(Cl)ccc3S2(=O)=O)c1C [Example 96, 5-((1S,2R)-1-(6-chloro-1,1-dioxido-4-(1-(2,2,2-trifluoroethyl)azetidin-3-yl)-3,4-dihydro-2H-benzo[e][1,2,4]thiadiazin-2-yl)-2-(6-fluoro-2,3-dimethylphenyl)propyl)-1,3,4-oxadiazol-2 (3H)-one] | < 20 | ≤ 1000
7 | Cc1ccc(F)c([C@@H](C)[C@@H](c2n[nH]c(=O)o2)N2CN([C@@H]3CCOC[C@H]3F)c3cc(Cl)ccc3S2(=O)=O)c1C [Example 97, 5-((1S,2R)-1-(6-chloro-4-((3S,4R)-3-fluorotetrahydro-2H-pyran-4-yl)-1,1-dioxido-3,4-dihydro-2H-benzo[e][1,2,4]thiadiazin-2-yl)-2-(6-fluoro-2,3-dimethylphenyl)propyl)-1,3,4-oxadiazol-2 (3H)-one] | < 20 | ≤ 1000
8 | COC(C)(C)CN1CN([C@H](c2n[nH]c(=O)o2)[C@H](C)c2c(F)ccc(C)c2C)S(=O)(=O)c2ccc(Cl)cc21 [Example 98, 5-((1S,2R)-1-(6-chloro-4-(2-methoxy-2-methylpropyl)-1,1-dioxido-3,4-dihydro-2H-benzo[e][1,2,4]thiadiazin-2-yl)-2-(6-fluoro-2,3-dimethylphenyl)propyl)-1,3,4-oxadiazol-2 (3H)-one] | < 20 | ≤ 1000

Now from value to molecule:

Row | IC50 (RNR (RNR1:RNR2 1:1)) [nM] | IC50 [1] [nM] | Compound
9 | 20 to 100 | ≤ 1000 | Cc1ccc(F)c([C@@H](C)[C@@H](c2n[nH]c(=O)o2)N2CN([C@@H]3CCN(CC(F)(F)F)C3)c3cc(Cl)ccc3S2(=O)=O)c1C [Example 99, 5-((1S,2R)-1-(6-chloro-1,1-dioxido-4-((R)-1-(2,2,2-trifluoroethyl)pyrrolidin-3-yl)-3,4-dihydro-2H-benzo[e][1,2,4]thiadiazin-2-yl)-2-(6-fluoro-2,3-dimethylphenyl)propyl)-1,3,4-oxadiazol-2 (3H)-one]
10 | 20 to 100 | 1000 to 5000 | Cc1ccc(F)c([C@@H](C)[C@@H](c2n[nH]c(=O)o2)N2CN(C3CC3)c3cc(Cl)cc(C(C)Cl)c3S2(=O)=O)c1C (stereo partly drawn) [Example 100, 5-((1S,2R)-1-(6-chloro-8-(1-chloroethyl)-4-cyclopropyl-1,1-dioxido-3,4-dihydro-2H-benzo[e][1,2,4]thiadiazin-2-yl)-2-(6-fluoro-2,3-dimethylphenyl)propyl)-1,3,4-oxadiazol-2 (3H)-one]
11 | 20 to 100 | 1000 to 5000 | Cc1ccc(F)c([C@@H](C)[C@@H](c2n[nH]c(=O)o2)N2CN([C@H]3CCN(CC(F)(F)F)C3)c3cc(Cl)ccc3S2(=O)=O)c1C [Example 101, 5-((1S,2R)-1-(6-chloro-1,1-dioxido-4-((S)-1-(2,2,2-trifluoroethyl)pyrrolidin-3-yl)-3,4-dihydro-2H-benzo[e][1,2,4]thiadiazin-2-yl)-2-(6-fluoro-2,3-dimethylphenyl)propyl)-1,3,4-oxadiazol-2 (3H)-one]
12 | < 20 | ≤ 1000 | CC(=O)c1cc(Cl)cc2c1S(=O)(=O)N([C@H](c1n[nH]c(=O)o1)[C@H](C)c1c(F)ccc(C)c1C)CO2 [Example 102, 5-((1S,2R)-1-(8-acetyl-6-chloro-1,1-dioxidobenzo[e][1,4,3]oxathiazin-2 (3H)-yl)-2-(6-fluoro-2,3-dimethylphenyl)propyl)-1,3,4-oxadiazol-2 (3H)-one]
13 | 1000 to 10000 | 5000 to 10000 | CC(=O)c1cc(Cl)cc2c1S(=O)(=O)N([C@H](c1n[nH]c(=O)o1)[C@@H](C)c1c(F)ccc(C)c1C)CO2 [Example 103, 5-((1S,2S)-1-(8-acetyl-6-chloro-1,1-dioxidobenzo[e][1,4,3]oxathiazin-2 (3H)-yl)-2-(6-fluoro-2,3-dimethylphenyl)propyl)-1,3,4-oxadiazol-2 (3H)-one]
14 | < 20 | ≤ 1000 | Cc1ccc(F)c([C@@H](C)[C@@H](c2n[nH]c(=O)o2)N2CN([C@@H]3CCN(CCF)C3)c3cc(Cl)ccc3S2(=O)=O)c1C [Example 104, 5-((1S,2R)-1-(6-chloro-4-((R)-1-(2-fluoroethyl)pyrrolidin-3-yl)-1,1-dioxido-3,4-dihydro-2H-benzo[e][1,2,4]thiadiazin-2-yl)-2-(6-fluoro-2,3-dimethylphenyl)propyl)-1,3,4-oxadiazol-2 (3H)-one]
15 | < 20 | 1000 to 5000 | Cc1ccc(F)c([C@@H](C)[C@@H](c2n[nH]c(=O)o2)N2CN(CCN3CCN(C)CC3)c3cc(Cl)ccc3S2(=O)=O)c1C [Example 105, 5-((1S,2R)-1-(6-chloro-4-(2-(4-methylpiperazin-1-yl)ethyl)-1,1-dioxido-3,4-dihydro-2H-benzo[e][1,2,4]thiadiazin-2-yl)-2-(6-fluoro-2,3-dimethylphenyl)propyl)-1,3,4-oxadiazol-2 (3H)-one]
16 | < 20 | ≤ 1000 | Cc1ccc(F)c([C@@H](C)[C@@H](c2n[nH]c(=O)o2)N2CN([C@H]3CCN(CCF)C3)c3cc(Cl)ccc3S2(=O)=O)c1C [Example 106, 5-((1S,2R)-1-(6-chloro-4-((S)-1-(2-fluoroethyl)pyrrolidin-3-yl)-1,1-dioxido-3,4-dihydro-2H-benzo[e][1,2,4]thiadiazin-2-yl)-2-(6-fluoro-2,3-dimethylphenyl)propyl)-1,3,4-oxadiazol-2 (3H)-one]
